As usually defined, the Tmax is the time from dosing to the highest level. By EC50 is commonly meant the concentration giving half of the maximal effect. As usually defined, the IC50 is the concentration needed to halve the response being measured. By ED50 is commonly meant the midpoint of the dose-response relation.

Calls of active or inactive are those of the source. No cut-off for these calls is given here.

Data set [1] can be described thus: Drug metabolism in Balb/c mouse blood assessed as concentration of parent compound at 0.5 mg/kg, po measured at 4 hrs by LC-MS/MS analysis. The data set is classed as ADME, organism-based. The following applies: in vivo, BLD = below limit of detection.
Data set [2] is described as follows: Drug metabolism in Balb/c mouse blood assessed as concentration of parent compound at 30 mg/kg, po measured at 24 hrs by LC-MS/MS analysis. It counts as ADME, organism-based. As to conditions: Balb/c, blood, read-out: Ct.
Data set [3] is described as follows: Terminal half-life in beagle dog at 1 mg/kg, iv. As to conditions: in vivo, read-out: beta t1/2 (converted). It counts as ADME, organism-based, Canis lupus familiaris.
Data set [4] can be described thus: Ratio of drug metabolism in Balb/c mouse blood assessed as phosphate ester metabolite to parent drug at 0.5 mg/kg, po measured at 24 hrs by LC-MS/MS analysis. The data set is classed as ADME, organism-based. The following applies: in vivo.
Data set [5] in a line: Drug metabolism in Balb/c mouse blood assessed as concentration of parent compound at 0.5 mg/kg, po measured at 24 hrs by LC-MS/MS analysis. As to conditions: read-out: Ct. The data set is classed as ADME, organism-based.
Data set [6] is described as follows: Ratio of drug metabolism in Lewis rat blood assessed as phosphate ester metabolite to parent drug at 3 mg/kg, po measured at 24 hrs by LC-MS/MS analysis. The data set is classed as ADME, organism-based. The following applies: in vivo.
A short description of data set [7]: AUC ratio in orally dosed Beagle dog blood assessed as phosphate metabolite to parent compound. As to conditions: in vivo, po. The data set is classed as ADME, organism-based, Canis lupus familiaris.
Data set [8] concerns Rattus norvegicus. The data set can be described thus: Drug metabolism in Lewis rat blood assessed as concentration of phosphate ester metabolite formation at 3 mg/kg, po measured at 4 hrs by LC-MS/MS analysis. The following applies: in vivo.
A short description of data set [9]: Drug metabolism in Balb/c mouse blood assessed as phosphate ester metabolite formation at 30 mg/kg, po measured at 4 hrs by LC-MS/MS analysis. The data set is classed as ADME, organism-based. The following applies: in vivo.
Data set [10] in a line: Drug metabolism in Lewis rat blood assessed as concentration of parent compound at 3 mg/kg, po measured at 24 hrs by LC-MS/MS analysis.
The nature of data set [11]: Drug metabolism in Balb/c mouse blood assessed as concentration of phosphate ester metabolite formation at 30 mg/kg, po measured at 24 hrs by LC-MS/MS analysis. The following applies: in vivo. It counts as ADME, organism-based.
Data set [12] deals with Mus musculus. Put plainly: Reduction in circulating lymphocytes in Balb/c mouse blood at 30 mg/kg, po measured at 4 hrs by hematology analyzer based analysis. It counts as functional. Also on record: scale not given: the % may be the effect or the level left.
Data set [13] is described as follows: Drug metabolism in Lewis rat blood assessed as concentration of parent compound at 3 mg/kg, po measured at 4 hrs by LC-MS/MS analysis. It counts as ADME, organism-based. As to conditions: read-out: Ct.
The subject of data set [14] is Rattus norvegicus. The data set can be described thus: Reduction in circulating lymphocytes in Lewis rat blood at 3 mg/kg, po measured at 24 hrs by hematology analyzer based analysis. Also on record: scale not given: the % may be the effect or the level left. It counts as functional.
Data set [15] in a line: Terminal half-life in Sprague-Dawley rat at 1 mg/kg, iv. It counts as ADME, organism-based. The following applies: in vivo, read-out: beta t1/2 (converted).
Data set [16] deals with Mus musculus. Put plainly: Reduction in circulating lymphocytes in Balb/c mouse blood at 0.5 mg/kg, po measured at 4 hrs by hematology analyzer based analysis. It counts as functional. Set-up: scale not given: the % may be the effect or the level left.
Data set [17] can be described thus: Terminal half-life in cynomolgus monkey at 1 mg/kg, iv. The data set is classed as ADME, organism-based, Macaca fascicularis. As to conditions: in vivo, read-out: beta t1/2 (converted).
The subject of data set [18] is Mus musculus. Put plainly: Reduction in circulating lymphocytes in Balb/c mouse blood at 30 mg/kg, po measured at 24 hrs by hematology analyzer based analysis. It counts as functional. Also on record: scale not given: the % may be the effect or the level left.
The nature of data set [19]: Drug metabolism in Balb/c mouse blood assessed as concentration of parent compound at 30 mg/kg, po measured at 4 hrs by LC-MS/MS analysis. It counts as ADME, organism-based. As to conditions: Balb/c, blood, read-out: Ct.
Data set [20] relates to Mus musculus. The data set can be described thus: Reduction in circulating lymphocytes in Balb/c mouse blood at 0.5 mg/kg, po measured at 24 hrs by hematology analyzer based analysis. The data set is classed as functional. Set-up: scale not given: the % may be the effect or the level left.
Data set [21] is described as follows: Ratio of drug metabolism in Balb/c mouse blood assessed as phosphate ester metabolite to parent drug at 30 mg/kg, po measured at 24 hrs by LC-MS/MS analysis. The data set is classed as ADME, organism-based. As to conditions: in vivo.
The nature of data set [22]: AUC ratio in orally dosed Sprague-Dawley rat blood assessed as phosphate metabolite to parent compound. The data set is classed as ADME, organism-based. As to conditions: in vivo, po.
A short description of data set [23]: Half-life in Lewis rat at 3 mg/kg, po measured over 72 hrs by LC-MS/MS analysis. The data set is classed as ADME, organism-based. As to conditions: in vivo.
The nature of data set [24]: Drug metabolism in Balb/c mouse blood assessed as concentration of phosphate ester metabolite at 0.5 mg/kg, po measured at 4 hrs by LC-MS/MS analysis. The data set is classed as ADME, organism-based. As to conditions: in vivo, BLD = below limit of detection.
The test system of data set [25] is Rattus norvegicus. Put plainly: Reduction in circulating lymphocytes in Lewis rat blood at 3 mg/kg, po measured at 4 hrs by hematology analyzer based analysis. Also on record: scale not given: the % may be the effect or the level left. The data set is classed as functional.
The nature of data set [26]: AUC ratio in orally dosed cynomolgus monkey blood assessed as phosphate metabolite to parent compound. As to conditions: in vivo, po. It counts as ADME, organism-based, Macaca fascicularis.
Data set [27] in a line: Drug metabolism in Balb/c mouse blood assessed as concentration of phosphate ester metabolite formation at 0.5 mg/kg, po measured at 24 hrs by LC-MS/MS analysis. The data set is classed as ADME, organism-based. The following applies: in vivo.
The nature of data set [28]: Tmax in Beagle dog at 0.3 mg/kg, po or 1 mg/kg, iv. The data set is classed as ADME, organism-based, Canis lupus familiaris. The following applies: in vivo.
In data set [29] the test system is Cerebellar cortex. The data set can be described thus: Induction of remyelination in lysophosphatidylcholine-induced demyelination in wild-type CD1 mouse organotypic cerebellar slice at 0.01 to 10 nM incubated for 7 days by immunohistochemistry based three-dimensional brain cell culture assay. It counts as functional, tissue-based. As to conditions: dose 0.01-10 nM, time 7.0 day.

Data set [30] is described as follows: Cardiotoxicity in human iPSC derived cardiomyocytes assessed as reduction in beating rate at 1 nM measured over 2 hrs by multi-electrode array relative to control. The data set is classed as toxicity, cell-based. Set-up: scale not given: the % may be the effect or the level left. As to conditions: stem cell-derived cardiomyocyte, 0.001 µM.
Data set [31] is described as follows: Tmax in cynomolgus monkey at 1 mg/kg, po or 1 mg/kg, iv. It counts as ADME, organism-based, Macaca fascicularis. As to conditions: in vivo.
In data set [32] the target is T1, Sphingosine 1-phosphate receptor 4 (Homo sapiens, UniProt O95977).
T1 sequence (O95977 whole entry): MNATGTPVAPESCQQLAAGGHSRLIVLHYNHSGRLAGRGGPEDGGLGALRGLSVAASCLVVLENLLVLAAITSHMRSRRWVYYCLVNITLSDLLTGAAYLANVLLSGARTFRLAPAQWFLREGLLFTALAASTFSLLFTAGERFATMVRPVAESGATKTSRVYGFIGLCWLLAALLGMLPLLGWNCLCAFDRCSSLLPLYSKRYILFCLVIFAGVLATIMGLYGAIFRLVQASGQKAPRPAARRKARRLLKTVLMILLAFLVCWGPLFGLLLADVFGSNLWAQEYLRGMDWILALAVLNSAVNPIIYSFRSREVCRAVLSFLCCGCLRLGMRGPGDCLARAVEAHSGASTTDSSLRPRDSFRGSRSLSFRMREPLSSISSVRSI
Put plainly: Agonist activity at human recombinant S1P4 expressed in CHO cell membranes assessed as stimulation of [35S]-GTPgammaS binding measured after 45 mins by liquid scintillation counting assay. It counts as functional, Cell membrane. A general note: Binding of GTPγS marks nucleotide exchange on a G protein.

For data set [33], the system named is Cerebellar cortex. Put plainly: Induction of remyelination in lysophosphatidylcholine-induced demyelination in wild-type CD1 mouse organotypic cerebellar slice assessed as myelination index at 0.01 to 10 nM incubated for 7 days by immunohistochemistry based three-dimensional brain cell culture assay (reference value: 50%). It counts as functional. The following applies: dose 0.01-10 nM, time 7 day.

A short description of data set [34]: Cardiotoxicity in human iPSC derived cardiomyocytes assessed as reduction in beating rate at 10 nM measured over 2 hrs by multi-electrode array relative to control. It counts as toxicity, cell-based. Set-up: scale not given: the % may be the effect or the level left. The following applies: stem cell-derived cardiomyocyte, 0.01 µM.
The nature of data set [35]: Tmax in Sprague-Dawley rat at 1 mg/kg, po or 1 mg/kg, iv. The data set is classed as ADME, organism-based. As to conditions: in vivo.
Data set [36] has as its target Sphingosine 1-phosphate receptor 3 (Homo sapiens, UniProt Q99500). Put plainly: Agonist activity at human recombinant S1P3 expressed in CHO cell membranes assessed as stimulation of [35S]-GTPgammaS binding measured after 45 mins by liquid scintillation counting assay. Set-up: species or system Cell membrane.
Data set [37] is described as follows: Antimigratory activity against human T cells assessed as inhibition of S1P-induced T cell migration preincubated for 10 mins followed by addition of S1P measured after 120 mins by calcein-AM dye based fluorescence analysis. It counts as functional.
Data set [38] has as its system Rattus norvegicus. The data set can be described thus: Reduction in circulating lymphocytes in Lewis rat blood assessed as effective dose after oral dosing measured at 24 hrs by hematology analyzer based analysis. The data set is classed as functional.
Data set [39] in a line: Pulmonary toxicity in Lewis rat assessed as elevation of BAL protein level at 3 mg/kg by advia1800 chemistry analyzer. The following applies: in vivo. The data set is classed as organism-based.
The test system of data set [40] is Mus musculus. Put plainly: Immunosuppressive activity in MOG (35 to 55 residues)/pertussis toxin-induced experimental autoimmune encephalomyelitis C57BL/6 mouse model assessed as reduction in formation of inflammatory lesions in CNS at 1 mg/kg, po QD starting from day 1 post immunization and measured thrice weekly until day 24. It counts as functional, organism-based.

Data set [41] in a line: AUC ratio in orally dosed human blood assessed as phosphate metabolite to parent compound. As to conditions: po. The data set is classed as ADME, organism-based.
Data set [42] can be described thus: Pulmonary toxicity in Lewis rat assessed as elevation of BAL protein level at 1 mg/kg by advia1800 chemistry analyzer. The following applies: in vivo. The data set is classed as organism-based.

Sequence of Sphingosine 1-phosphate receptor 3 (Q99500 whole entry): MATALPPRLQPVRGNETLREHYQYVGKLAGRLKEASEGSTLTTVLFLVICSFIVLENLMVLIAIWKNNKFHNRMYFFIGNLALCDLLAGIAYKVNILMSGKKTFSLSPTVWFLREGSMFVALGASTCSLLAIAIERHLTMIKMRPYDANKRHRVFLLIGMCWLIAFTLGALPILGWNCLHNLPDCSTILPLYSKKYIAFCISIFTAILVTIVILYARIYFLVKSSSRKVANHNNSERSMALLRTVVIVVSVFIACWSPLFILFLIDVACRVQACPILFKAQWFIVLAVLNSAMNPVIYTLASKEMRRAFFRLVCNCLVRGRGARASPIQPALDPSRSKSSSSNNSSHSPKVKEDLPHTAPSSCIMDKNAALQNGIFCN

As to `CCCCCC[C@@H]1CCc2cc([C@H]3CC[C@](N)(CO)C3)ccc2C1` [BMS-986104], the Ct entry in data set [1] is recorded as “Bld”; in data set [10], 160 nM. Moreover, the concentration at 24 h in data set [2] came out at 1200 nM; in data set [5], 19 nM. Besides, the half-life in [3] is 5.46 days; in [15], 5.46 days; in data set [17], 5.46 days; in [23], greater than 3.12 days. Moreover, the Ratio in [4] was found to be 1; in [6], 1.6; in data set [21] it was 0.5. Besides, the “Ratio AUC” value in data set [7] was determined as 2.4; in [22] it was 2.5; in data set [26] it was 0.3. For the same compound, the Drug metabolism in the data set on Rattus norvegicus [8] was 90 nM; in data set [9], 150 nM; in [11] it was 620 nM; in data set [24], “Bld”; in data set [27], 20 nM. The Activity in the data set on Mus musculus [12] was determined as 88%; in the data set on Rattus norvegicus [14], 82%; with Mus musculus [16], 17%; in the data set with Mus musculus [18], 90%; in the data set on Mus musculus [20], 73%; in the data set on Rattus norvegicus [25] it was 48%. Moreover, the values for the concentration at 4 h in data set [13] and in data set [19] were 130 nM and 1000 nM, respectively.

With `COc1ccccc1CC[C@@H]1CCc2cc([C@H]3CC[C@](N)(COP(=O)(O)O)C3)ccc2C1`, the Tmax in data set [28], in [31] and in data set [35] was 6 h throughout. In the data set on Cerebellar cortex [29], the result was Active. For the same compound, the Activity turned out to be 11% in [30], 100% in the data set on Cerebellar cortex [33] and 27% in data set [34]. The EC50 in data set [32] is 3.4 nM; in data set [36] it was greater than 1000 nM. For the same compound, the IC50 in [37] is 0.6 nM.

For the compound `CCCCCCCCc1ccc(CCC(N)(CO)CO)cc1` [FINGOLIMOD], the ED50 in the data set on Rattus norvegicus [38] turned out to be 0.1 mg/kg. For the same compound, the Activity in [39] was 12.5 mg/dL. Further, the outcome in the data set on Mus musculus [40] was Active. Moreover, the “Ratio AUC” value amounted to 3.7 in [7], 5.6 in [22], 0.42 in data set [41] and 5.9 in data set [26].

In the case of `O=C(O)C[C@H]1CCCN(C[C@@H](O)c2ccc(-c3noc(-c4onc(-c5ccccc5)c4C(F)(F)F)n3)cc2)C1`, the Activity in data set [30] is 36%; in data set [34] it was 57%; in data set [42], 24.3 mg/dL.
